“Also recorded” adds a separate entry of the source. Read-outs that look alike come from different tables or passages of the source.

Data set [1] addresses T1, PKMζ (Homo sapiens, UniProt Q05513).
T1 sequence (Q05513 1-409 isoform Q05513-2): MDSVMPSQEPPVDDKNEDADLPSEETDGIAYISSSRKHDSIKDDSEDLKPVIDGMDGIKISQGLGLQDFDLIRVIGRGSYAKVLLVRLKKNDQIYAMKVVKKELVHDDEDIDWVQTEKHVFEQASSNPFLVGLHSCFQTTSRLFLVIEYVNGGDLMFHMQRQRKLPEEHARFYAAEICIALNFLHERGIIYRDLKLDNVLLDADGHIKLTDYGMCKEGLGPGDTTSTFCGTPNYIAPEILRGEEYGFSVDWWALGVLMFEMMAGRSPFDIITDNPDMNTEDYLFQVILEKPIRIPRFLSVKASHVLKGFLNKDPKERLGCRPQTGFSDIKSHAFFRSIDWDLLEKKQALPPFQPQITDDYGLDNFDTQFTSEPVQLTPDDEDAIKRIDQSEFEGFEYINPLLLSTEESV
In words: PKMζ phosphorylation assay, PKCε substrate. The format is biochemical.

In data set [2] the test system is baseline postsynaptic AMPAR responses in CA1 pyramidal cells of hippocampal slices. Kind of data set: Baseline postsynaptic AMPAR-mediated EPSCs. The conditions noted are these: 5 μM scrambled ZIP; p = 0.6, 1 min before application vs 15 min after; n = 4. The data set is classed as cell-based, Sprague Dawley rats.
In data set [3] the test system is LTP maintenance. The conditions noted are these: cited from earlier work.
Data set [4] relates to PDK1 phosphorylation of PKMζ (T410). Kind of data set: Activation loop. The conditions noted are these: 100 nM for 4 hr, control vs staurosporine p = 0.9, n = 5. The format is cell-based, Sprague Dawley rats.
For data set [5], the system named is baseline fEPSPs in hippocampal slices. Kind of data set: Baseline fEPSP in hippocampal slices. The conditions noted are these: 100 nM; p = 0.8 between 10 and 60 min; n = 4. The data set is classed as cell-based, Sprague Dawley rats.
The subject of data set [6] is PDK1 phosphorylation of N-terminally tagged, eGFP-PKMζ overexpressed in 293T cells. Kind of data set: Activation loop phosphorylation of eGFP-PKMζ overexpressed in 293T cells. The format is cell-based. The conditions noted are these: 100 nM for 4 hr; A. Tcherepanov and T. C. Sacktor, unpublished data.
In data set [7] the test system is PKMζ-RFP fusion protein. The following applies: ref Wu-Zhang et al., 2012, cited from earlier work.
In data set [8] the test system is LTP induction. The conditions noted are these: 100 nM; hippocampal slices; ref Ling et al., 2002; cited from earlier work.
The target in data set [9] is T1, PKMζ. The conditions noted are these: ref Ling et al., 2002; cited from earlier work.
Data set [10] concerns catalytic domain of PKC. The conditions noted are these: ref Herbert et al., 1990, cited from earlier work.

For the compound myr-RLYRKRIWRSAGR-OH [scrambled ZIP], in data set [1] (Fig. 4A, right, compared with ZIP), the “efficacy on inhibiting PKMζ biochemically in vitro relative to ZIP” value is “less effective”. The “inhibition of PKMζ at higher doses” value in [1] (higher doses, Fig. 4A, right) is given as “will also inhibit PKMζ at higher doses”. Moreover, the “effect on baseline postsynaptic AMPAR responses” value in data set [2] is “no effect”. Moreover, the “effect on LTP maintenance” value in data set [3] (dose equivalent to ZIP (5 μM), ref Serrano et al., 2005) is reported as “ineffective”.
Consider `CN[C@@H]1C[C@H]2O[C@@](C)([C@@H]1OC)n1c3ccccc3c3c4c(c5c6ccccc6n2c5c31)C(=O)NC4` [staurosporine], for which the “phosphorylation state of the activation loop of PKMζ (T410P)” value is “no effect” in data set [4] and “does not alter the phosphorylation state” in [4] (listed as Staurosporine). The “effect on baseline fEPSP” value in [5] was “no effect on baseline”. The “PDK1 phosphorylation of eGFP-PKMζ” value in data set [6] was “no effect”. Besides, in [7] (cultured cells), the “activation loop phosphorylation of overexpressed PKMζ-RFP” value is reported as “reduce activation loop phosphorylation”. Also, in [3] (100 nM, 4 hours, hippocampal slices, ref Ling et al., 2002), the “effect on LTP maintenance” value is “does not reverse LTP maintenance; also recorded: but not LTP maintenance”. Further, the “effect on LTP induction” value in [8] is “prevented LTP induction; also recorded: block LTP induction”.
Regarding `COc1ccc2c(c[n+](C)c3c4cc5c(cc4ccc23)OCO5)c1OC` [chelerythrine], in data set [1] (DTT 10 μM, PKMζ 5 nM, 25 μM PKCε substrate, n = 4), the “inhibition of PKMζ, 10 μM DTT” value was “effective”. Besides, the “inhibition of PKMζ, 1 mM DTT” value in data set [1] (DTT 1 mM, PKMζ 5 nM, 25 μM PKCε substrate, n = 4) is listed as “much less effective”. In addition, the “sensitivity to redox state” value in data set [1] (high levels of dithiothreitol (DTT), PKMζ 5 nM) is recorded as “redox-sensitive inhibitor of PKMζ; also recorded: sensitive to redox state”. Also, in data set [7], the “inhibition of PKMζ fusion protein in transfected cultured cells” value is listed as “did not inhibit”. In addition, in data set [9], the “inhibition of PKM forms” value is “highly effective on PKM forms; also recorded: particularly effective on PKM forms”. In addition, the mode of inhibition result in data set [10] (inhibition of substrate binding) is recorded as “competitive inhibitors of substrate binding”. The “inhibition of catalytic domain of PKC” value in data set [10] (Thompson and Fields, 1996) is recorded as “inhibitor of the catalytic domain of PKC”.

These data come from publication PMC3445653 (Neuropharmacology, 2012).
